# Assay results published in US20090143279A1 (priority 2007, published 2009).
# Like-named read-outs stand apart in the source and are kept apart here.
# Columns and labels:
# [1] = system: mitochondrial membrane potential; type: cell-based, mouse; conditions: for ΔΨm (composite Z-score): normalized score vs mock-treated (DMSO) wells
# reactive oxygen species = type: cell-based, mouse; conditions: for ROS (composite Z-score): normalized score vs mock-treated (DMSO) wells
# OXPHOS gene expression = type: cell-based, mouse; conditions: for GE-HTS (composite Z-score): normalized score vs mock-treated (DMSO) wells
# nuOXPHOS transcripts = type: cell-based, mouse; conditions: for nucOX (composite Z-score): normalized score vs mock-treated (DMSO) wells
# mtOXPHOS transcripts = type: cell-based, mouse; conditions: for mitoOX (composite Z-score): normalized score vs mock-treated (DMSO) wells
# cytochrome c = type: cell-based, mouse; conditions: for cyt c (composite Z-score): normalized score vs mock-treated (DMSO) wells
# C2C12 myotubes = conditions: for Viability (composite Z-score): normalized score vs mock-treated (DMSO) wells
# [2] = system: cellular dehydrogenase activity; conditions: for MTT (composite Z-score): normalized score vs mock-treated (DMSO) wells
# [3] = composite Z-score vs DMSO, Conc 20 μM
# [4] = Table 4, C2C12 myotubes, 48 h, composite Z-score
# [5] = composite Z-score vs mock-treated (DMSO) wells, Conc 20 μM
# [6] = 20 μM, composite Z-score vs DMSO
# [7] = normalized composite Z-score vs mock-treated (DMSO) wells, Conc 20 μM
Structure (SMILES),ROS (reactive oxygen species; [3]),GE-HTS (OXPHOS gene expression; [3]),nucOX (nuOXPHOS transcripts; [3]),mitoOX (mtOXPHOS transcripts; [3]),cyt c (cytochrome c; [3]),Viability (C2C12 myotubes; [3]),"MTT [2, 3]",ΔΨm (composite Z-score) ([1]; Conc 20 μM),ROS (composite Z-score) (reactive oxygen species; Conc 20 μM),GE-HTS (composite Z-score) (OXPHOS gene expression; Conc 20 μM),nucOX (composite Z-score) (nuOXPHOS transcripts; Conc 20 μM),mitoOX (composite Z-score) (mtOXPHOS transcripts; Conc 20 μM),cyt c (composite Z-score) (cytochrome c; Conc 20 μM),Viability (composite Z-score) (C2C12 myotubes; Conc 20 μM),MTT (composite Z-score) ([2]; Conc 20 μM),also measured
"CC(=O)O[C@@H]1C[C@H]2C(C)(C)[C@H](O)C[C@H](O)[C@]2(C)[C@H]2CC[C@@]3(C)[C@H](c4ccoc4)OC(=O)[C@H]4O[C@]43[C@@]21C [1,3-dideacetylkhivorin]",0.963,−0.693,−0.349,−1.275,0.887,0.507,−0.622,,,,,,,,,"ΔΨm [1, 3]: 0.051"
"Cc1cc(O)c2c(c1O)C(=O)c1c(O)cc(C)c(O)c1C2=O [1,4,5,8-tetrahydroxy-2,6-dimethylanthroquinone, reference compound]",0.772,−1.123,−1.178,−0.739,0.005,−0.853,−0.344,,,,,,,,,"ΔΨm ([1]; Table 4, C2C12 myotubes, 48 h, JC-1, composite Z-score): −0.662; ΔΨm [1, 3]: −0.662; ROS (reactive oxygen species; [4]): 0.772; Viability (C2C12 myotubes; [4]): −0.853; MTT [2, 4]: −0.344"
"CC(=O)O[C@@H]1CC(=O)[C@@]2(C)C(CC(=O)[C@]3(C)C2CC[C@@]2(C)[C@H](c4ccoc4)OC(=O)C4OC423)C1(C)C (stereo partly shown) [1,7-dideacetoxy-1,7-dioxokhivorin]",,,,,,,,,,,,,,,,"ΔΨm [1, 5]: −0.535; ROS (reactive oxygen species; [5]): 0.352; GE-HTS (OXPHOS gene expression; [5]): −0.558; nucOX (nuOXPHOS transcripts; [5]): −0.585; mitoOX (mtOXPHOS transcripts; [5]): −0.355; cyt c (cytochrome c; [5]): 0.539; Viability (C2C12 myotubes; [5]): 0.042; MTT [2, 5]: −0.142"
"CC1(C)C2C[C@@H](O)[C@]3(C)C(CC[C@@]4(C)[C@H](c5ccoc5)OC(=O)C5OC543)[C@@]2(C)C(=O)C[C@H]1O (stereo partly shown) [1-deacetoxy-1-oxo-3,7-dideacetylkhivorin]",,,,,,,,−0.321,0.626,−0.525,−0.704,−0.020,−0.411,−0.413,−1.776,
CC1(C)[C@H]2CC[C@@]1(C)C(=O)C2 [1r-camphor],,,,,,,,,,,,,,,,"ΔΨm [1, 6]: −0.794; ROS (reactive oxygen species; [6]): 0.042; GE-HTS (OXPHOS gene expression; [6]): 0.073; nucOX (nuOXPHOS transcripts; [6]): 0.107; mitoOX (mtOXPHOS transcripts; [6]): 0.023; cyt c (cytochrome c; [6]): 0.372; Viability (C2C12 myotubes; [6]): −0.744; MTT [2, 6]: −0.402"
"COc1ccc2c(c1OC)C(=O)O[C@@H]2[C@H]1c2cc3c(cc2CCN1C)OCO3 [1s,9r-hydrastine]",−0.029,−0.152,−0.041,−0.341,0.359,0.650,−0.539,,,,,,,,,ΔΨm [1]: −0.849
"CCOc1ccc(C(=O)c2ccc(O)c(O)c2O)cc1 [2,3,4-trihydroxy-4′-ethoxybenzophenone]",,,,,,,,−1.185,0.052,−0.823,−0.896,−0.478,0.440,−0.413,−2.368,
"COc1ccc(C(=O)c2ccc(O)cc2)c(O)c1O [2,3,4′-trihydroxy-4-methoxybenzophenone]",,,,,,,,,,,,,,,,"ΔΨm [1, 7]: −1.356; ROS (reactive oxygen species; [7]): −0.472; GE-HTS (OXPHOS gene expression; [7]): −1.557; nucOX (nuOXPHOS transcripts; [7]): −1.472; mitoOX (mtOXPHOS transcripts; [7]): −1.476; cyt c (cytochrome c; [7]): 0.378; Viability (C2C12 myotubes; [7]): −0.403; MTT [2, 7]: −0.475"
"CC(=O)O[C@@H]1C[C@H]2C(C)(C)CCC(=O)[C@]2(C)[C@H]2CC[C@@]3(C)[C@H](c4ccoc4)OC(=O)[C@H]4O[C@]43[C@@]21C [2,3-dihydroisogedunin]",,,,,,,,0.221,0.780,−0.471,−0.444,−0.449,0.184,0.804,−1.287,
